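96-well plates; 48 h exposure; 5 concentrations. Endpoints by linear interpolation between flanking doses. Not reached: highest tested concentration assigned. Here, GI50 denotes the concentration required for 50% inhibition of growth.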 Active and inactive are the calls of the source. No stated cut-off is given here; in the data, active = GI50 up to about 1.1 µM and inactive = higher.
Tests used:
Experiment in all cases: NCI anticancer screen, dose series, 48 h
[1] = tested on: OVCAR-4
[2] = tested on: MDA-MB-435
[3] = tested on: PC-3
[4] = tested on: SNB-75
[5] = tested on: SN12C
[6] = tested on: U-251
[7] = tested on: DU-145
[8] = tested on: SK-MEL-5
[9] = tested on: OVCAR-8
[10] = tested on: TK-10
[11] = tested on: ACHN
[12] = tested on: CAKI-1
[13] = tested on: MDA-MB-231
[14] = tested on: SK-MEL-28
[15] = tested on: SNB-19
[16] = tested on: KM12
[17] = tested on: CCRF-CEM
[18] = tested on: HOP-62
[19] = tested on: MOLT-4
[20] = tested on: OVCAR-3

For `CS[C@]12[C@@H]3C(=O)N(C)C(=O)[C@@H]3[C@](C)(C(=O)N1C)C(=O)N2c1ccccc1`, the GI50 [1] was > 100 µM (inactive), the GI50 [2] was > 100 µM (inactive) and the GI50 [3] was > 100 µM (inactive). For the same compound, the GI50 [4] was > 100 µM (inactive), the GI50 [5] was > 100 µM (inactive) and the GI50 [6] was > 100 µM (inactive). The GI50 [7] was > 100 µM (inactive), the GI50 [8] was > 100 µM (inactive) and the GI50 [9] was > 100 µM (inactive). For the same compound, the GI50 [10] was > 100 µM (inactive), the GI50 [11] was > 100 µM (inactive) and the GI50 [12] was > 100 µM (inactive). For the same compound, the GI50 [13] was > 100 µM (inactive), the GI50 [14] was > 100 µM (inactive) and the GI50 [15] was > 100 µM (inactive). The GI50 [16] was > 100 µM (inactive), the GI50 [17] was > 100 µM (inactive) and the GI50 [18] was > 100 µM (inactive). The GI50 [19] was > 100 µM (inactive) and the GI50 [20] was > 100 µM (inactive).
In the case of `CCOC(CCNCC(OCC)OCC)OCC`, the GI50 [1] is reported as > 10 µM (inactive), the GI50 [2] is reported as > 10 µM (inactive) and the GI50 [3] is reported as > 10 µM (inactive). The GI50 [4] was > 10 µM (inactive), the GI50 [5] was > 10 µM (inactive) and the GI50 [6] was > 10 µM (inactive). For the same compound, the GI50 [7] was > 10 µM (inactive), the GI50 [8] was > 10 µM (inactive) and the GI50 [9] was > 10 µM (inactive). For the same compound, the GI50 [10] was > 10 µM (inactive), the GI50 [11] was > 10 µM (inactive) and the GI50 [12] was > 10 µM (inactive). For the same compound, the GI50 [13] was > 10 µM (inactive), the GI50 [14] was > 10 µM (inactive) and the GI50 [15] was > 10 µM (inactive). For the same compound, the GI50 [16] was > 10 µM (inactive), the GI50 [17] was > 10 µM (inactive) and the GI50 [18] was > 10 µM (inactive). The GI50 [19] was > 10 µM (inactive) and the GI50 [20] was > 10 µM (inactive).
For `Cc1cc2c(cc1C)C(=O)c1ncccc1C2=O`, the GI50 [1] was 21.9 µM (inactive), the GI50 [2] was 16.8 µM (inactive) and the GI50 [3] was 29 µM (inactive). For the same compound, the GI50 [4] was 54.5 µM (inactive), the GI50 [5] was 22.6 µM (inactive) and the GI50 [6] was 35.7 µM (inactive). For the same compound, the GI50 [7] was 24.2 µM (inactive), the GI50 [8] was 7 µM (inactive) and the GI50 [9] was 31.9 µM (inactive). The GI50 [10] was > 100 µM (inactive), the GI50 [11] was 37.2 µM (inactive) and the GI50 [12] was 36.6 µM (inactive). For the same compound, the GI50 [13] was 22.6 µM (inactive), the GI50 [14] was 50.5 µM (inactive) and the GI50 [15] was 34.8 µM (inactive). For the same compound, the GI50 [16] was 31.5 µM (inactive), the GI50 [17] was 30.4 µM (inactive) and the GI50 [18] was 71.3 µM (inactive). The GI50 [19] was 20.4 µM (inactive) and the GI50 [20] was 3.06 µM (inactive).
`CN(C)CCCNc1nnc(NCCCN(C)C)c2c(=O)c3sccc3[nH]c12` was tested, and the GI50 [1] was 5.42 µM (inactive), the GI50 [2] was 8.15 µM (inactive) and the GI50 [3] was 6.01 µM (inactive). For the same compound, the GI50 [4] was 6.73 µM (inactive), the GI50 [5] was 3.19 µM (inactive) and the GI50 [6] was 22.2 µM (inactive). For the same compound, the GI50 [7] was 8.75 µM (inactive), the GI50 [8] was 1.4 µM (inactive) and the GI50 [9] was 3 µM (inactive). For the same compound, the GI50 [10] was 9.86 µM (inactive), the GI50 [11] was 5.85 µM (inactive) and the GI50 [12] was 5.05 µM (inactive). The GI50 [13] was 6 µM (inactive), the GI50 [14] was 28.8 µM (inactive) and the GI50 [15] was 31.7 µM (inactive). The GI50 [16] was 5.75 µM (inactive), the GI50 [17] was 9.48 µM (inactive) and the GI50 [18] was 5.77 µM (inactive). For the same compound, the GI50 [19] was 3.24 µM (inactive) and the GI50 [20] was 14.2 µM (inactive).
In the case of `Cc1ccc(S(=O)(=O)[N-]C2C(=O)c3ccccc3C(=O)C2[n+]2cccc(C(N)=O)c2)cc1` (stereo not drawn), the GI50 [1] is reported as 26.9 µM (inactive), the GI50 [2] is reported as > 100 µM (inactive) and the GI50 [3] is reported as > 100 µM (inactive). The GI50 [4] was > 100 µM (inactive), the GI50 [5] was 30.3 µM (inactive) and the GI50 [6] was > 100 µM (inactive). For the same compound, the GI50 [7] was 40.6 µM (inactive), the GI50 [8] was > 100 µM (inactive) and the GI50 [9] was > 100 µM (inactive). For the same compound, the GI50 [10] was 33.9 µM (inactive), the GI50 [11] was > 100 µM (inactive) and the GI50 [12] was 40.9 µM (inactive). The GI50 [13] was 32.6 µM (inactive), the GI50 [14] was > 100 µM (inactive) and the GI50 [15] was > 100 µM (inactive). The GI50 [16] was > 100 µM (inactive), the GI50 [17] was > 100 µM (inactive) and the GI50 [18] was > 100 µM (inactive). The GI50 [19] was > 100 µM (inactive) and the GI50 [20] was > 100 µM (inactive).
With `COC(=O)C(Cc1ccccc1)NP(=O)(O)OCC1OC(n2ccc(N)nc2=O)C(O)C1O` (stereo not drawn) the GI50 [1] was > 100 µM (inactive), the GI50 [2] was > 100 µM (inactive) and the GI50 [3] was > 100 µM (inactive). For the same compound, the GI50 [4] was > 100 µM (inactive), the GI50 [5] was > 100 µM (inactive) and the GI50 [6] was > 100 µM (inactive). The GI50 [7] was > 100 µM (inactive), the GI50 [8] was > 100 µM (inactive) and the GI50 [9] was > 100 µM (inactive). The GI50 [10] was 40.8 µM (inactive), the GI50 [11] was > 100 µM (inactive) and the GI50 [12] was > 100 µM (inactive). For the same compound, the GI50 [13] was > 100 µM (inactive), the GI50 [14] was > 100 µM (inactive) and the GI50 [15] was > 100 µM (inactive). The GI50 [16] was > 100 µM (inactive), the GI50 [17] was 50.9 µM (inactive) and the GI50 [18] was > 100 µM (inactive). The GI50 [19] was 76 µM (inactive) and the GI50 [20] was > 100 µM (inactive).
For `C=C(C)[C@@H]1CC[C@]2(C(=O)O)CC[C@]3(C)[C@H](CCC4[C@@]5(C)CC[C@H](C(=O)/C=C/c6ccc(O)c(O)c6)C(C)(C)[C@@H]5CC[C@]43C)[C@@H]12` (stereo partly drawn), the GI50 [1] was 10.4 µM (inactive), the GI50 [2] was 2.29 µM (inactive) and the GI50 [3] was 4.32 µM (inactive). For the same compound, the GI50 [4] was 0.0513 µM (active), the GI50 [5] was 5.02 µM (inactive) and the GI50 [7] was 5.15 µM (inactive). For the same compound, the GI50 [8] was 2.85 µM (inactive), the GI50 [9] was 4.46 µM (inactive) and the GI50 [10] was 11 µM (inactive). The GI50 [11] was 2.72 µM (inactive), the GI50 [12] was 3.66 µM (inactive) and the GI50 [13] was 4.36 µM (inactive). For the same compound, the GI50 [15] was 11.9 µM (inactive), the GI50 [16] was 2.2 µM (inactive) and the GI50 [17] was 2.42 µM (inactive). For the same compound, the GI50 [18] was 2.9 µM (inactive), the GI50 [19] was 2.94 µM (inactive) and the GI50 [20] was 10.7 µM (inactive).

From ChEMBL document CHEMBL1201862, “PubChem BioAssay data set” (2004)
